Measurements: US20130109734A1 (Metabolex, Inc., priority 2010, published 2013)

target: T1, human GPR120 (Homo sapiens, UniProt Q5NUL3); assay: Intracellular Ca2+ assay in human GPR120 stable cell line (HEK293 co-expressing Gqi5), Flexstation; type: cell-based; settings: % activity at 5 μM compared to the maximal activity of GW9508 at 6.7 μM (=100%); human GPR120 cells, Ca2+ fluorescence
T1 construct: host or cells: HEK293 cells co-expressing Gqi5
T1 sequence (Q5NUL3 1-361): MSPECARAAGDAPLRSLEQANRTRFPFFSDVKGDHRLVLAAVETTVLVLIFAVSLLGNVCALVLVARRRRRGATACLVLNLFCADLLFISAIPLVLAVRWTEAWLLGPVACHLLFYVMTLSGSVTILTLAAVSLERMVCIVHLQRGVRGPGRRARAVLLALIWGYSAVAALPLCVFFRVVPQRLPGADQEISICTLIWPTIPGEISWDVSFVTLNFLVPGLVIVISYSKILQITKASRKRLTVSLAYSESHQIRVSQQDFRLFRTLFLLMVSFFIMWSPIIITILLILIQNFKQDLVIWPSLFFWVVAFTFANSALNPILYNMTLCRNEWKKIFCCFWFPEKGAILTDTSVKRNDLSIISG
How it was run: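 HEK293 cells stably co-expressing Gqi5 and Flag-tagged human GPR120, loaded with Calcium 4 dye in HBSS/HEPES pH 7.4 at 37 °C; compounds at eight concentrations, 0.00001–20 μM, fluorescence (485/525 nm) read 90 s. EC50 from Max−Min change; percent activity relative to GW9508 maximum at 6.7 μM.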

| SMILES | % Activity (GW9508 Reference Compound) |
| --- | --- |
| [2H]C1([2H])c2cc(Cl)cc(COc3ccc(CC(C)C(=O)O)cc3F)c2OC1(C)C (stereo not shown) [Example 146, 3-(4-((3,3-dideuterio-5-chloro-2,2-dimethyl-2,3-dihydrobenzofuran-7-yl)methoxy)-3-fluorophenyl)-2-methylpropanoic acid] | 140.72% |
| CC(Cc1ccc(OCc2cc(Cl)cc3c2OCC3(C)C)cc1)C(=O)O (stereo not shown) [Example 148, 3-(4-((5-chloro-3,3-dimethyl-2,3-dihydrobenzofuran-7-yl)methoxy)phenyl)-2-methylpropanoic acid] | 113.89% |
| Cc1cc2cccc(COc3ccc4c(c3)CCC4CC(=O)O)c2s1 (stereo not shown) [Example 152, 2-(5-((2-methylbenzo[b]thiophen-7-yl)methoxy)-2,3-dihydro-1H-inden-1-yl)acetic acid] | 83.81% |
| CC1(C)Cc2cc(Cl)cc(COc3ccc(C(C)(C)CC(=O)O)cc3)c2O1 [Example 156, 3-(4-((5-chloro-2,2-dimethyl-2,3-dihydrobenzofuran-7-yl)methoxy)phenyl)-3-methylbutanoic acid] | 148.87% |
| CC(Cc1ccc(OCc2cc(Cl)cc3c2OC2(CCCC2)C3)cc1)C(=O)O (stereo not shown) [Example 159, 3-(4-((5-chloro-3H-spiro[benzofuran-2,1′-cyclopentane]-7-yl)methoxy)phenyl)-2-methylpropanoic acid] | 164.79% |
| O=C(O)C1CC1c1ccc(OCc2cc(F)cc3c2OC2(CCCC2)C3)cc1 (stereo not shown) [Example 165, 2-(4-((5-fluoro-3H-spiro[benzofuran-2,1′-cyclopentane]-7-yl)methoxy)phenyl)cyclopropanecarboxylic acid] | 158.08% |
| CC(CCc1ccc(OCc2cc(F)cc3c2OC(C)(C)C3)cc1)C(=O)O (stereo not shown) [Example 171, 4-(4-((5-fluoro-2,2-dimethyl-2,3-dihydrobenzofuran-7-yl)methoxy)phenyl)-2-methylbutanoic acid] | 98.97% |
| CC1(C)Cc2cc(F)cc(COc3ccc4c(c3)CC[C@H]4CC(=O)O)c2O1 [Example 175, (S)-2-(5-((5-fluoro-2,2-dimethyl-2,3-dihydrobenzofuran-7-yl)methoxy)-2,3-dihydro-1H-inden-1-yl)acetic acid] | 152.44% |
| CC1(C)Cc2cc(Cl)cc(COc3ccc4c(c3)CC[C@H]4CC(=O)O)c2O1 [Example 176, (S)-2-(5-((5-chloro-2,2-dimethyl-2,3-dihydrobenzofuran-7-yl)methoxy)-2,3-dihydro-1H-inden-1-yl)acetic acid] | 138.42% |
| CC1(C)Cc2cc(F)cc(COc3ccc4c(c3)CC[C@@H]4CC(=O)O)c2O1 [Example 178, (R)-2-(5-((5-fluoro-2,2-dimethyl-2,3-dihydrobenzofuran-7-yl)methoxy)-2,3-dihydro-1H-inden-1-yl)acetic acid] | 106% |
| CC1(C)Cc2cc(Cl)cc(COc3ccc4c(c3)CC[C@@H]4CC(=O)O)c2O1 [Example 179, (R)-2-(5-((5-chloro-2,2-dimethyl-2,3-dihydrobenzofuran-7-yl)methoxy)-2,3-dihydro-1H-inden-1-yl)acetic acid] | 105.44% |
| CC(CC(=O)O)Cc1ccc(OCc2cc(F)cc3c2OC(C)(C)C3)cc1 (stereo not shown) [Example 182, 4-(4-((5-fluoro-2,2-dimethyl-2,3-dihydrobenzofuran-7-yl)methoxy)phenyl)-3-methylbutanoic acid] | 98.43% |
| CC1(C)Cc2c(COc3ccc4c(c3)CC[C@@H]4CC(=O)O)cc(F)cc2O1 [Example 188, (R)-2-(5-((6-fluoro-2,2-dimethyl-2,3-dihydrobenzofuran-4-yl)methoxy)-2,3-dihydro-1H-inden-1-yl)acetic acid] | 104.04% |
| CC1(C)Cc2cc(F)cc(COc3cc(Cl)c(CCC(=O)O)c(Cl)c3)c2O1 [Example 197, 3-(2,6-dichloro-4-((5-fluoro-2,2-dimethyl-2,3-dihydrobenzofuran-7-yl)methoxy)phenyl)propanoic acid] | 151.44% |
| Cc1cc(OCc2cc(F)cc3c2OC(C)(C)C3)c(C)cc1CCC(=O)O [Example 206, 3-(4-((5-fluoro-2,2-dimethyl-2,3-dihydrobenzofuran-7-yl)methoxy)-2,5-dimethylphenyl)propanoic acid] | 111.45% |
| Cc1c(CCC(=O)O)ccc(OCc2cc(F)cc3c2OC(C)(C)C3)c1C [Example 208, 3-(4-((5-fluoro-2,2-dimethyl-2,3-dihydrobenzofuran-7-yl)methoxy)-2,3-dimethylphenyl)propanoic acid] | 147.47% |
| Cc1c(CCC(=O)O)ccc(OCc2cc(Cl)cc3c2OC(C)(C)C3)c1C [Example 209, 3-(4-((5-chloro-2,2-dimethyl-2,3-dihydrobenzofuran-7-yl)methoxy)-2,3-dimethylphenyl)propanoic acid] | 142.22% |
| Cc1cc(OCc2cc(F)cc3c2OC(C)(C)C3)c(F)cc1CCC(=O)O [Example 214, 3-(5-fluoro-4-((5-fluoro-2,2-dimethyl-2,3-dihydrobenzofuran-7-yl)methoxy)-2-methylphenyl)propanoic acid] | 143.21% |
| CCc1c(CCC(=O)O)ccc(OCc2cc(F)cc3c2OC(C)(C)C3)c1F [Example 216, 3-(2-ethyl-3-fluoro-4-((5-fluoro-2,2-dimethyl-2,3-dihydrobenzofuran-7-yl)methoxy)phenyl)propanoic acid] | 144.23% |
| [2H]C([2H])(Oc1ccc(CCC(=O)O)c(CC)c1F)c1cc(F)cc2c1OC(C)(C)C2 [Example 228, 3-(4-(dideuterio(5-fluoro-2,2-dimethyl-2,3-dihydrobenzofuran-7-yl)methoxy)-3-fluoro-2-ethylphenyl)propanoic acid] | 119.11% |
| [2H]C([2H])(Oc1ccc(CC(C)C(=O)O)cc1F)c1cc(F)cc2c1OC(C)(C)C2 (stereo not shown) [Example 230, 3-(4-(dideuterio(5-fluoro-2,2-dimethyl-2,3-dihydrobenzofuran-7-yl)methoxy)-3-fluorophenyl)-2-methylpropanoic acid] | 86.25% |

Second part, the molecule after the results:

| % Activity (GW9508 Reference Compound) | SMILES |
| --- | --- |
| 143.69% | [2H]C1([2H])c2cc(F)cc(COc3ccc(CC(C)C(=O)O)cc3)c2OC1(C)C (stereo not shown) [Example 145, 3-(4-((3,3-dideuterio-5-fluoro-2,2-dimethyl-2,3-dihydrobenzofuran-7-yl)methoxy)phenyl)-2-methylpropanoic acid] |
| 138.65% | [2H]C1([2H])c2cc(Cl)cc(COc3ccc(CC(C)C(=O)O)cc3C(F)(F)F)c2OC1(C)C (stereo not shown) [Example 147, 3-(4-((3,3-dideuterio-5-chloro-2,2-dimethyl-2,3-dihydrobenzofuran-7-yl)methoxy)-3-(trifluoromethyl)phenyl)-2-methylpropanoic acid] |
| 117.38% | Cc1cc2cccc(COc3c(F)cc(CC(C)C(=O)O)cc3F)c2s1 (stereo not shown) [Example 151, 3-(3,5-difluoro-4-((2-methylbenzo[b]thiophen-7-yl)methoxy)phenyl)-2-methylpropanoic acid] |
| 106.81% | CC1(C)Cc2cc(F)cc(COc3ccc4c(c3)CCCC4CC(=O)O)c2O1 (stereo not shown) [Example 153, 2-(6-((5-fluoro-2,2-dimethyl-2,3-dihydrobenzofuran-7-yl)methoxy)-1,2,3,4-tetrahydronaphthalen-1-yl)acetic acid] |
| 172.13% | CC1(C)Cc2cc(F)cc(COc3ccc(CCCC(=O)O)cc3)c2O1 [Example 160, 4-(4-((5-fluoro-2,2-dimethyl-2,3-dihydrobenzofuran-7-yl)methoxy)phenyl)butanoic acid] |
| 154.48% | CC(Cc1ccc(OCc2cc(F)cc3c2OC2(CCCC2)C3)cc1)C(=O)O (stereo not shown) [Example 162, 3-(4-((5-fluoro-3H-spiro[benzofuran-2,1′-cyclopentane]-7-yl)methoxy)phenyl)-2-methylpropanoic acid] |
| 159.06% | COc1cc(CCC(=O)O)ccc1OCc1cc(F)cc2c1OC(C)(C)C2 [Example 173, 3-(4-((5-fluoro-2,2-dimethyl-2,3-dihydrobenzofuran-7-yl)methoxy)-3-methoxyphenyl)propanoic acid] |
| 148.21% | COc1cc(OCc2cc(Cl)cc3c2OC2(CCCC2)C3)ccc1CCC(=O)O [Example 194, 3-(4-((5-chloro-3H-spiro[benzofuran-2,1′-cyclopentane]-7-yl)methoxy)-2-methoxyphenyl)propanoic acid] |
| 114.48% | CC1(C)Cc2cc(F)cc(COc3ccc(CCC(=O)O)c4c3CCCC4)c2O1 [Example 218, 3-(4-((5-fluoro-2,2-dimethyl-2,3-dihydrobenzofuran-7-yl)methoxy)-5,6,7,8-tetrahydronaphthalen-1-yl)propanoic acid] |
| 115.86% | CCc1cc(OCc2cc(F)cc3c2OC(C)(C)C3)c(F)cc1CCC(=O)O [Example 220, 3-(2-ethyl-5-fluoro-4-((5-fluoro-2,2-dimethyl-2,3-dihydrobenzofuran-7-yl)methoxy)phenyl)propanoic acid] |
